Data from article PMC3690263, “Trypanocidal Activity of Smallanthus sonchifolius: Identification of Active Sesquiterpene Lactones by Bioassay-Guided Fractionation” (Evidence-based Complementary and Alternative Medicine : eCAM, 2013).
Several values for one entry are separate records, joined by “and”; a condition that tells them apart may be missing. Identical values can stand only once. Entries after “also recorded” stand apart in the source; their conditions may differ.

What was measured:
T. cruzi epimastigotes = experiment: Recovery of epimastigotes after 24 h treatment (residual effect), Neubauer chamber counting; type: cell-based, Trypanosoma cruzi; conditions: for reduction in the replication rate / amount of parasites after treatment: epimastigotes; for reduction in the replication rate: at 24 h after treatment; for amount of parasites after treatment: 24 h treatment
Experimental: To determine whether the parasites could recover after treatment with the pure compounds, T. cruzi epimastigotes were incubated with compounds 1–3 (0.1, 1, and 10 μg/mL) for 24 h. Parasites were then centrifuged at 3000 rpm for 10 min, resuspended in fresh medium, and incubated for 2 additional days, counting the number of parasite in a Neubauer chamber on a daily basis.

T. cruzi amastigotes = experiment: Intracellular amastigotes in J774 macrophages, β-galactosidase/CPRG assay; type: cell-based, Trypanosoma cruzi; conditions: for selectivity index (SI): CC50 Vero cells divided by IC50 T. cruzi amastigotes; for IC50: Trypanosoma cruzi, intracellular amastigotes in J774 macrophages, 48 h after addition
Experimental: To evaluate the effect of compounds 1–3 on intracellular forms of T. cruzi, 96-well plates were seeded with J774 murine macrophages at 5 × 10^3 per well in 100 μL of culture medium and incubated for 2 h at 37°C in a 5% CO2 atmosphere. Cells were infected with transfected blood trypomastigotes expressing β-galactosidase at a parasite : cell ratio of 10 : 1. After 2 h of coculture, plates were washed twice with PBS to remove free parasites and compounds 1–3 were added at 0.1–50 μg/mL per well in 150 μL of fresh complete RPMI medium without phenol red (Gibco, Rockville, MD). Controls included infected nontreated cells (100% infection control) and uninfected cells (0% infection control). The assay was developed 48 h later by addition of chlorophenol red-β-d-galactopyranoside (100 μM CPRG) and 1% Nonidet P40. Plates were incubated for 4–6 h at 37°C. Wells with galactosidase activity turned the media from yellow to red, and this reaction was quantified at 590 nm in a microplate reader (Bio-Rad Laboratories, Hercules, CA). Percentage inhibition was calculated as 100 − {[(absorbance of treated infected cells)/(absorbance of untreated infected cells)] × 100} and the IC50 value calculated.
The selectivity index (SI) of each compound was calculated as the CC50 obtained with Vero cells divided by the IC50 obtained against T. cruzi amastigotes.

MTT cytotoxicity assay = type: cell-based; conditions: African green monkey, Vero cells
Experimental: The cytotoxic effect of compounds 1, 2, and 3 on Vero cells was evaluated by using the MTT tetrazolium salt (3-(4,5-dimethylthiazol-2-yl)-2,5-diphenyltetrazolium bromide) (Sigma) colorimetric assay. Cells (5 × 10^4 cells/well) were seeded at a final volume of 150 μL in a flat-bottom 96-well microplate and cultured at 37°C in a 5% CO2 atmosphere in the absence or presence of increasing concentrations of the compounds (1–50 μg/mL). After 24 h, MTT was added at a final concentration of 1.5 mg/mL and plates were incubated for 2 h at 37°C. The purple formazan crystals were completely dissolved by adding 150 μL of ethanol, and the absorbance was detected at 570 nm in a microplate reader. Results were calculated as the ratio between optical density in the presence and absence of the compound multiplied by 100. The 50% cytotoxic concentration (CC50) was calculated for each compound. All experiments were made in duplicate.

T. cruzi trypomastigotes = experiment: Trypanocidal effect on bloodstream trypomastigotes, counting of remaining live parasites; type: cell-based, Trypanosoma cruzi; conditions: 24 h; for IC50: Trypanosoma cruzi
Experimental: The trypanocidal effect of compounds 1, 2, and 3 was also tested on bloodstream trypomastigotes as previously described. Briefly, mouse blood containing trypomastigotes was adjusted to a concentration of 1.5 × 10^6 parasite/mL and seeded (150 μL/well) by duplicate into a 96-well microplate, in the presence of each compound (1 to 50 μg/mL, final concentration). Plates were incubated for 24 h, and the remaining live parasites were counted in a haemocytometer.

[1] = test system: T. cruzi epimastigotes (RA strain); experiment: [3H] thymidine uptake assay, growth inhibition of T. cruzi epimastigotes; type: cell-based; conditions: Trypanosoma cruzi, 72 h of incubation
Experimental: T. cruzi epimastigotes (RA strain) were grown in liver infusion tryptose medium (LIT) supplemented with 10% fetal bovine serum (Natocor). Cultures were routinely maintained by weekly passages at 28°C. T. cruzi trypomastigotes were routinely maintained by infecting 21-day-old male CF1 mice. T. cruzi amastigotes were obtained by infecting J774 cells with bloodstream trypomastigotes.
S. sonchifolius OE and fractions F 1A–F 5B were tested for trypanocidal activity against T. cruzi epimastigotes, at final concentrations of 10 μg/mL and 100 μg/mL, by a [^3H] thymidine uptake assay as previously described. Compounds 1, 2, and 3 were tested at final concentrations ranging from 0.01 μg/mL to 50 μg/mL. Stock solutions of the samples were prepared in ethanol : water (1 : 1). Epimastigotes in exponential growth phase were adjusted to 1.5 × 10^6 parasites/mL and seeded on 96-well plates in the presence of the different concentrations of OE, fractions, or compounds. Parasites were cultured in triplicate for 72 h. Control parasites were cultured in absence or presence of benznidazole (20 μM; Roche-Rio de Janeiro, Brazil). Percentage inhibition was calculated as 100 − {[(cpm of treated parasites)/(cpm of untreated parasites)] × 100}. The compound concentration at which the parasite growth was inhibited by 50% (inhibitory concentration 50, IC50) was determined after 72 h.

[2] = 10 μg/mL for 24 h, then 2 days in fresh medium

Structure (SMILES)	recovery of epimastigote replication after removal of compound (T. cruzi epimastigotes; [2])	reduction in the replication rate (T. cruzi epimastigotes; 1 μg/mL) [%]	amount of parasites after treatment (T. cruzi epimastigotes; 10 μg/mL)	selectivity index (SI) (T. cruzi amastigotes)	IC50 (T. cruzi amastigotes)	CC50 at 24 h (MTT cytotoxicity assay)	IC50 (T. cruzi trypomastigotes)	IC50 [1]	recovery of epimastigote replication after removal of compound (T. cruzi epimastigotes; 0.1 μg/mL for 24 h, then fresh medium)	reduction in the replication rate (T. cruzi epimastigotes; 10 μg/mL) [%]	activity against trypomastigotes (T. cruzi trypomastigotes; 1 to 50 μg/mL)
C=C1C(=O)O[C@@H]2/C=C(\C)CC/C=C(/C(=O)OC)[C@H](OC(C)=O)[C@@H](OC(=O)[C@]3(C)O[C@@H]3C)[C@@H]12 [uvedalin, 8β-(2′S,3′S)-epoxyangeloyloxy-9α-acetyloxy-1(10)E,4E,11(13)-germacratrien-12,6α-olide-14-oic acid methyl ester]	not able to recover their replication rate; also recorded: no recuperation of the epimastigotes was observed; also recorded: not able to recover their initial replication rates	~50	drastic reduction in the amount of parasites	14	3.34 µM and 1.5 µg/mL	46.8 µM and 21 µg/mL	25 µM and 11.2 µg/mL	1.09 µM and 0.49 µg/mL	–	–	–
C=C1C(=O)O[C@H]2[C@H]1[C@H](OC(=O)[C@@]1(C)O[C@H]1C)[C@@H](OC(C)=O)/C(C(=O)OC)=C\CC[C@@]1(C)O[C@H]21 [enhydrin, 4α,5β-epoxy-8β-(2′S,3′S)-epoxyangeloyloxy-9α-acetyloxy-1(10)E,11(13)-germacradien-12,6α-olide-14-oic-acid methyl ester]	not able to recover their replication rate; also recorded: no recuperation of the epimastigotes was observed; also recorded: not able to recover their initial replication rates	~50	drastic reduction in the amount of parasites	9	5.17 µM and 2.4 µg/mL	46.5 µM and 21.6 µg/mL	33.4 µM and 15.5 µg/mL	840 nM and 0.39 µg/mL	–	–	–
C=C1C(=O)O[C@@H]2/C=C(\C)CC/C=C(/C(=O)OC)[C@H](OC(C)=O)[C@@H](OC(=O)/C(C)=C\C)[C@@H]12 [polymatin B, 8β-angeloyloxi-9α-acetyloxi-1(10)E,4E,11(13)-germacratrien-12,6α-olide-14-oic acid methyl ester]	–	–	–	16.3	9.02 µM and 3.9 µg/mL	147 µM and 63.7 µg/mL	–	4.9 µM and 2.12 µg/mL	recovered their replication rates at values similar to the control parasites	~50	not active
